Columns and labels:
[1] = tested on: Hela (cervix uteri cancer cells); test: 48 h incubation with the salts: cell fluorescence, living cells, multiplication coefficient (Table 1); assay type: cell-based, Human; conditions: 48 hs, 50 mcg/ml
Procedure: (§1) New compounds of formula 1 were tested on cell lines. Use was made of 9 different neoplastic cell lines which were incubated for 48 hs with various new salts of protoporphyrin and with a new salt of the conventionally applied HpD preparation/hematoporphyrin derivatives/obtained according to Lipson et al. All compounds were used in the form of aqueous solutions, at a concentration of 50 mcg/ml. Determination was made of:
(§2) 1/ Cell fluorescence /F/: after 48 hs incubation, the cells were washed away, the intensity of fluorescence was measured in a fluorescence microscope and was expressed on an arbitrary scale of 0-4 scores;
(§3) 2/ Percentage of living cells /P %/ after 48 hs incubation;
(§4) 3/ Cell multiplication coefficient /M/ in the presence of different preparations, expressed as: [formula]

[2] = tested on: CL; test: as above; assay type: cell-based; conditions: 48 hs, 50 mcg/ml
Procedure: as §1, §2, §3, §4

[3] = tested on: MA-104 (Rhesus monkey embryo kidney cancer cells); test: as above; assay type: cell-based; conditions: 48 hs, 50 mcg/ml
Procedure: as §1, §2, §3, §4

[4] = tested on: PZ; test: as above; assay type: cell-based; conditions: 48 hs, 50 mcg/ml
Procedure: as §1, §2, §3, §4

[5] = tested on: KB (oral cavity cancer cells); test: 48 h incubation with the salts: cell fluorescence, living cells, multiplication coefficient (Table 2); assay type: cell-based, Human; conditions: 48 hs, 50 mcg/ml
Procedure: as §1, §2, §3, §4
KB oral cavity cancer cells

[6] = tested on: HBT-39/w (breast cancer cells); test: as above; assay type: cell-based, Human; conditions: 48 hs, 50 mcg/ml
Procedure: as §1, §2, §3, §4

[7] = tested on: GR (GRMT/F6, mammary gland cancer cells of GR-strain mice); test: as above; assay type: cell-based, Murine; conditions: 48 hs, 50 mcg/ml
Procedure: as §1, §2, §3, §4
GRMT/F6 mammary gland cancer cells of GR-strain mice

[8] = tested on: HEp-2 (larynx cancer cells); test: 48 h incubation with the salts: cell fluorescence, living cells, multiplication coefficient (Table 3); assay type: cell-based, Human; conditions: 48 hs, 50 mcg/ml
Procedure: as §1, §2, §3, §4
Hep-2 larynx cancer cells

[9] = tested on: Mm (Mm5MT/C1, mammary gland cancer cells of C3H-strain mice); test: as above; assay type: cell-based, Murine; conditions: Mm; 48 hs; 50 mcg/ml
Procedure: as §1, §2, §3, §4
mammary gland cancer cells of C3H-strain mice

[10] = tested on: T-47D (breast cancer cells); test: as above; assay type: cell-based, Human; conditions: 48 hs, 50 mcg/ml
Procedure: as §1, §2, §3, §4
T-47D breast cancer cells

Row | SMILES | Cell fluorescence /F/ [1] | Cell multiplication coefficient /M/ [1] | Percentage of living cells /P %/ [1] [%] | Cell fluorescence /F/ [2] | Cell multiplication coefficient /M/ [2] | Percentage of living cells /P %/ [2] [%] | Cell fluorescence /F/ [3] | Cell multiplication coefficient /M/ [3] | Percentage of living cells /P %/ [3] [%] | Cell fluorescence /F/ [4] | Cell multiplication coefficient /M/ [4] | Percentage of living cells /P %/ [4] [%] | Cell fluorescence /F/ [5] | Cell multiplication coefficient /M/ [5] | Percentage of living cells /P %/ [5] [%] | Cell fluorescence /F/ [6] | Cell multiplication coefficient /M/ [6] | Percentage of living cells /P %/ [6] [%] | Cell fluorescence /F/ [7] | Cell multiplication coefficient /M/ [7] | further results
1 | CC1=C(CCC(=O)O)c2cc3[nH]c(cc4nc(cc5[nH]c(cc1n2)c(C(C)NC(C)C(=O)O)c5C)C(C(C)NC(C)C(=O)O)=C4C)c(C)c3CCC(=O)O.N=C(N)NCCC[C@H](N)C(=O)O.N=C(N)NCCC[C@H](N)C(=O)O (stereo not drawn) [PP/Ala/2 /Arg/2, l-arginine di/N-alanyl/-protoporphyrinate] | + | 0,11 | 11 | - | 0,30 | 30 | ++ | 0,50 | 50 | ++ | 0,15 | 15 | +++ | 0 | 0 | ++ | 0,33 | 17 | + | 0,50 | Percentage of living cells /P %/ [7]: 50%; Cell fluorescence /F/ [8]: ++; Cell multiplication coefficient /M/ [8]: 0,21; Percentage of living cells /P %/ [8]: 21%; Cell fluorescence /F/ [9]: +++; Cell multiplication coefficient /M/ [9]: 0,84; Percentage of living cells /P %/ [9]: 86%; Cell fluorescence /F/ [10]: +++; Cell multiplication coefficient /M/ [10]: 0,82; Percentage of living cells /P %/ [10]: 85%
2 | CC1=C(CCC(=O)O)c2cc3[nH]c(cc4nc(cc5[nH]c(cc1n2)c(C(C)NC(CC(=O)O)C(=O)O)c5C)C(C(C)NC(CC(=O)O)C(=O)O)=C4C)c(C)c3CCC(=O)O.N=C(N)NCCC[C@H](N)C(=O)O.N=C(N)NCCC[C@H](N)C(=O)O (stereo not drawn) [PP/Asp/2 /Arg/2, l-arginine di/N-aspartyl/-protoporphyrinate] | +++ | 0,50 | 38 | + | 0,55 | 55 | +++ | 0,52 | 17 | + | 0,15 | 14 | ++ | 0,12 | 16 | +++ | 0,81 | 48 | ++ | 0,73 | Percentage of living cells /P %/ [7]: 25%; Cell fluorescence /F/ [8]: ++++; Cell multiplication coefficient /M/ [8]: 0,40; Percentage of living cells /P %/ [8]: 47%; Cell fluorescence /F/ [9]: +++; Cell multiplication coefficient /M/ [9]: 0,92; Percentage of living cells /P %/ [9]: 70%; Cell fluorescence /F/ [10]: ++++; Cell multiplication coefficient /M/ [10]: 0,92; Percentage of living cells /P %/ [10]: 65%

Reference: patent publication US5451599A, “Complex salts of hematoporphyrin and of its derivatives, their synthesis, and therapeutic agent” (Wojskowa Akademia Techniczna im. Jaroslawa Dabrowskiego, priority 1991, dated 1995)
